Measured values published in ChEMBL document CHEMBL1127201, “Biological activity of 3-aminopropyl (methyl) phosphinic acid, a potent and selective GABAB agonist with CNS activity” (Bioorg Med Chem Lett, 1993).

Biological target: GABA B receptor (Rattus norvegicus, UniProt O88871+Q9Z0U4)
Assay: In vitro displacement of [3H]GABA from Gamma-aminobutyric acid type B receptor sites in rat brain membranes
Type: cell membranes

Chain of GABA B receptor (Q9Z0U4 whole entry): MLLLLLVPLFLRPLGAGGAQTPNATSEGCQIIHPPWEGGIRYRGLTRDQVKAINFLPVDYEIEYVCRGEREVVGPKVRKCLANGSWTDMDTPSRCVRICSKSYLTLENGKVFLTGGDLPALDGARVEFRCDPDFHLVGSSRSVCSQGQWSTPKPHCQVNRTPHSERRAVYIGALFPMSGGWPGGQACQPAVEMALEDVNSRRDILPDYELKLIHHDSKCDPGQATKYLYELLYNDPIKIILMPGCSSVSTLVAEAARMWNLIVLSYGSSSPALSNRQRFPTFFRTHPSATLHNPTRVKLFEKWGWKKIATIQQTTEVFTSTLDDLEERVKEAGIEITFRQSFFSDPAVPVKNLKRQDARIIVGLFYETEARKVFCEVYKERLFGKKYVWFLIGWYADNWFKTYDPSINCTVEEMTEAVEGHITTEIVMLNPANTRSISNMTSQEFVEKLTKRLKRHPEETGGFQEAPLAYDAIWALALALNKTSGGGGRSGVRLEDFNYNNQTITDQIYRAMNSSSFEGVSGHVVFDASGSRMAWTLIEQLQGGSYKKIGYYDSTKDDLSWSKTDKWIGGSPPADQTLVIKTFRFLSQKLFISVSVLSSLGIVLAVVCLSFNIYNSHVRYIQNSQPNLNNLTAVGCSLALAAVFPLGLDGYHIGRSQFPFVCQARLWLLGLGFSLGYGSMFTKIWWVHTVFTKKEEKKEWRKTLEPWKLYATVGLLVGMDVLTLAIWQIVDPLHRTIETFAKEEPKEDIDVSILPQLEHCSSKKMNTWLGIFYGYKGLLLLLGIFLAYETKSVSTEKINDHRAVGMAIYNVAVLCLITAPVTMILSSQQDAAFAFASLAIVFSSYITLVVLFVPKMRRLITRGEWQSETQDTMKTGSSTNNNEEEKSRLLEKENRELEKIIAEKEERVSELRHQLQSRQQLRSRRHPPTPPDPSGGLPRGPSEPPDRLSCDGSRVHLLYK
Chain of GABA B receptor (O88871 whole entry): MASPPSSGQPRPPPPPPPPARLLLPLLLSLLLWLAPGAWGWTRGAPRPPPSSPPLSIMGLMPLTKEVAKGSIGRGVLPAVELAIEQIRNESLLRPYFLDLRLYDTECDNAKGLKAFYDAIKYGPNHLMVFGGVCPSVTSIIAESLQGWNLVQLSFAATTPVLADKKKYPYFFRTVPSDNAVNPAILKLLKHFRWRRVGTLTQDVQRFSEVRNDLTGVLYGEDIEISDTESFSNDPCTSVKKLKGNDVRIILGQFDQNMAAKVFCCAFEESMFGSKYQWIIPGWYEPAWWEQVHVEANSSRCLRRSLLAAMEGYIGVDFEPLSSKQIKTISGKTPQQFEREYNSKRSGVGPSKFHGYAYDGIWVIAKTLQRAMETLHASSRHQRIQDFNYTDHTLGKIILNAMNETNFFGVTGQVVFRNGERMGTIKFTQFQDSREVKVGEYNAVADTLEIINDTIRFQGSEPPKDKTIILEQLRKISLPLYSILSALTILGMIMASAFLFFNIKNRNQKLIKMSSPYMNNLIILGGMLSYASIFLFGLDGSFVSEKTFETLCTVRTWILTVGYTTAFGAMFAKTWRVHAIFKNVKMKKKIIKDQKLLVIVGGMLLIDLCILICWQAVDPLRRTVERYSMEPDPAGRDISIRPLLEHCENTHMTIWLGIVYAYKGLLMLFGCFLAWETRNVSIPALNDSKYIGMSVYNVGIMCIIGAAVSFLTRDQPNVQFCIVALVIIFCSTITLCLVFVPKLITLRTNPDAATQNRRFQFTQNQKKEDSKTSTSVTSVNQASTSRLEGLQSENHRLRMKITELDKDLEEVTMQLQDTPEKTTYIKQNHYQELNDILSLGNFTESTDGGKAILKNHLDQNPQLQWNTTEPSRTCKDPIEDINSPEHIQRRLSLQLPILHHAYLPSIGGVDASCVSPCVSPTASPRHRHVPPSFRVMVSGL

| Compound | IC50 |
| --- | --- |
| NCCOP(=O)(O)O [PHOSPHORYLETHANOLAMINE] | > 100000 nM |
| CCP(=O)(O)CCCN | 3000 nM |
| NCCCS(=O)(=O)O [TRAMIPROSATE] | 2000 nM |
| NCCCP(=O)(O)O | 2000 nM |
| NCCOS(=O)(=O)O | > 100000 nM |
| NCCC[PH](=O)O | 3 nM |
| CCOC(OCC)P(=O)(O)CCCN | 2500 nM |
| CCCCCCP(=O)(O)CCCN | 1000 nM |
